Results published in patent publication US20220356174A1, “PYRIDIN-2-ONE COMPOUNDS USEFUL AS SMARCA2 ANTAGONISTS” (Epizyme, Inc., priority 2018, published 2022).
Like-named read-outs stand apart in the source and are kept apart here.

Assays:
A549 cells = assay: High-throughput proliferation (HTP) assay for A549 cells (CellTiter-Glo, 7 days); assay type: cell-based; conditions: Homo sapiens, 168 h, read-out: A549 SMARCA2 IC50
How it was run: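 Seven-day growth of A549 (62.5 cells/well, F12K with 10% HI-FBS, 37° C.) with compound, read by CellTiter-Glo ATP luminescence. Percent inhibition scaled between DMSO wells and 10 μM Doxorubicin wells, then fitted for EC50 and IC50.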

H358 cells = assay: High-throughput proliferation (HTP) assay for H358 cells (CellTiter-Glo, 7 days); assay type: cell-based; conditions: Homo sapiens, NCI-H358, 168 h, read-out: H358 SMARCA2 IC50
Description: Thawing vials: H358 cells (ATCC #CRL-5807™) were thawed from a cryovial containing approximately 1.6×10^6 cells frozen in 70% RPMI 1640 medium, 20% HI-FBS and 10% DMSO. Cells were thawed by submerging the bottom half of the vial in a 37° C. water bath and gently flicked until almost thawed. The cells were removed and transferred into a 15 mL conical tube containing 9 mL RPMI 1640 medium+10% HI-FBS and then centrifuged 200×g for 4 min before drawing off the media without disturbing the cell pellet to remove the DMSO. The cells were resuspended again in 15 mL of RPMI 1640 fresh complete media+10% HI-FBS and grown up in a T75 flask at 37° C. with 5% CO2 Incubator. Viability was measured to obtain baseline.
Preparing frozen stock vials: Cell density was counted in a stock flask. The culture was transferred to a 50 mL conical tube and spun down to remove medium, and then resuspend at 1-2×10^6 cells/mL in complete medium containing 10% DMSO and transferred to a 1 mL per vial.
Routine subculture: Sub-confluent cultures (70-80%) were split every 4 days, seeding out at 1-2×10^6 cells/75 cm^2.
Day 0: Assay ready plates were prepared by dispensing 50 nL of compound stock or DMSO in the appropriate wells of 384-well white CulturPlates using Echo550. Using the Multiflo, H358 cells at 50 μL/well were plated in RPMI 1640 complete media+10% HI-FBS+1% pen/strep at cell density determined [20,000 cells/mL (1,000 cells/well)] from growth curve. Treated cells were inclubated at 37° C., 5% CO2, relative humidity >90% for 7 days. CellTiter-Glo (CTG) ATP detection reagent was prepared according to manufacturer's specifications. Cell assay plates were removed from incubator and bring to room temperature (RT).
Using the MultiDrop liquid handler, 30 μL of CTG were added per well. Plates were placed on the multidrop dispenser shake for 5 seconds at RT. Plates were incubated for 30 minutes in the dark at RT before measuring luminescence using the Envison2104.
Data analysis: Using the DMSO control wells as the 0% inhibition (high signal) control and the 10 uM Doxorubicin control wells as the 100% inhibition (low signal) control, percent inhibition EC50s (inflection point) and IC50s were calculated for the compound dose responses.

[1] = target: T1, FL-SMARCA2 (full-length human SMARCA2 isoform 1) (Homo sapiens, UniProt P51531); assay: SMARCA2 ATPase activity assay (ADP-Glo, chicken mononucleosome substrate); assay type: biochemical; conditions: ATPase assay, enzyme 5 nM, ATP 250 uM, chicken mononucleosome 10 nM, 30 min preincubation
T1 construct: FLAG tag (YKDDDDK) (C); made in house; host or cells: Sf21 insect cells (baculovirus, pFastBacI)

FL-SMARCA4 = FL-SMARCA4 (Homo sapiens, UniProt P51532); assay: SMARCA4 ATPase activity assay (ADP-Glo, chicken mononucleosome substrate)
[2] = FL-SMARCA4 IC>50, Table 3c.2, ATPase assay, enzyme 5 nM, ATP 250 uM, chicken mononucleosome 10 nM, 30 min preincubation
[3] = Table 3d.1, read-out: FL-SMARCA2 IC>50

T1 sequence (P51531 with tags, fused parts or gaps): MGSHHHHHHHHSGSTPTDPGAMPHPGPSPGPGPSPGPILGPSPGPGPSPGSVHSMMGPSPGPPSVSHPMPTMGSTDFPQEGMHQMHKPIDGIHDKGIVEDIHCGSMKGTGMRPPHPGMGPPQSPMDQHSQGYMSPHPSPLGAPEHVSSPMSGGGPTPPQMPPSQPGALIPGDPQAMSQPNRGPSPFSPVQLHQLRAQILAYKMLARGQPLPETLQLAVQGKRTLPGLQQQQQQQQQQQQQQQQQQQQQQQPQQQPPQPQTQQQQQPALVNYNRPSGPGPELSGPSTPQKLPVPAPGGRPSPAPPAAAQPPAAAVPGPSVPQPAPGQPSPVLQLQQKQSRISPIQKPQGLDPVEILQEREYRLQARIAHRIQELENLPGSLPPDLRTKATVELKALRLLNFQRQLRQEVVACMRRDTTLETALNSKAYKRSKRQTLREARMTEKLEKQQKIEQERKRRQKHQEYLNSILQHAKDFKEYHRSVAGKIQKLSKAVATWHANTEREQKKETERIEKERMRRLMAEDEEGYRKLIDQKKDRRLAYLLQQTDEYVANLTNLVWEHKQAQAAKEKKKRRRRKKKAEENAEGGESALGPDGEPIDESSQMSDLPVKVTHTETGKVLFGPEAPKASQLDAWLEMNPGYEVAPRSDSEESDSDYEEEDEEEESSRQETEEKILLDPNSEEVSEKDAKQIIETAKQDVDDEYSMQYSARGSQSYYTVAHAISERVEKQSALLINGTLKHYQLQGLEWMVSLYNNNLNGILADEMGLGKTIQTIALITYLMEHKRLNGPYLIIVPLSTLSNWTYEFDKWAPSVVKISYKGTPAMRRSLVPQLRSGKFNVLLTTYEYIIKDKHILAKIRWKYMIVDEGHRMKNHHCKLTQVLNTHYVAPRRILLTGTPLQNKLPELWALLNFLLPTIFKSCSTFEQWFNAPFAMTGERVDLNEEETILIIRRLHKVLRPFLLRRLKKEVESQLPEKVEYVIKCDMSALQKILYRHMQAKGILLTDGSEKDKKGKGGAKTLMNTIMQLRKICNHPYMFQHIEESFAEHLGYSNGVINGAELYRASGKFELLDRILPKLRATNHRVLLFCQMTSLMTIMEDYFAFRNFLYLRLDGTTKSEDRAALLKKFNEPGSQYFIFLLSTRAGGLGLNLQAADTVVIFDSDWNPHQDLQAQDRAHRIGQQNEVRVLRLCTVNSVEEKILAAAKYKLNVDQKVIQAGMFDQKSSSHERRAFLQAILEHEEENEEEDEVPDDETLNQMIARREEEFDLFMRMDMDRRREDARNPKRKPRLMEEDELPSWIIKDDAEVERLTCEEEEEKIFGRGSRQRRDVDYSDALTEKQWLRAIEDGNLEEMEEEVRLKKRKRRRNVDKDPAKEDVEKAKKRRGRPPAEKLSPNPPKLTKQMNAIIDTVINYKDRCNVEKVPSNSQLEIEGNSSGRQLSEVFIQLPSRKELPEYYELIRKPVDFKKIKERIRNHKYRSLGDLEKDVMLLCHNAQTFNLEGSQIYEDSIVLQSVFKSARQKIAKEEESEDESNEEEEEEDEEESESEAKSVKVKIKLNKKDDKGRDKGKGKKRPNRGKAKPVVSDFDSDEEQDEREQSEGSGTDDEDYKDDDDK
Sequence of FL-SMARCA4 (P51532 whole entry): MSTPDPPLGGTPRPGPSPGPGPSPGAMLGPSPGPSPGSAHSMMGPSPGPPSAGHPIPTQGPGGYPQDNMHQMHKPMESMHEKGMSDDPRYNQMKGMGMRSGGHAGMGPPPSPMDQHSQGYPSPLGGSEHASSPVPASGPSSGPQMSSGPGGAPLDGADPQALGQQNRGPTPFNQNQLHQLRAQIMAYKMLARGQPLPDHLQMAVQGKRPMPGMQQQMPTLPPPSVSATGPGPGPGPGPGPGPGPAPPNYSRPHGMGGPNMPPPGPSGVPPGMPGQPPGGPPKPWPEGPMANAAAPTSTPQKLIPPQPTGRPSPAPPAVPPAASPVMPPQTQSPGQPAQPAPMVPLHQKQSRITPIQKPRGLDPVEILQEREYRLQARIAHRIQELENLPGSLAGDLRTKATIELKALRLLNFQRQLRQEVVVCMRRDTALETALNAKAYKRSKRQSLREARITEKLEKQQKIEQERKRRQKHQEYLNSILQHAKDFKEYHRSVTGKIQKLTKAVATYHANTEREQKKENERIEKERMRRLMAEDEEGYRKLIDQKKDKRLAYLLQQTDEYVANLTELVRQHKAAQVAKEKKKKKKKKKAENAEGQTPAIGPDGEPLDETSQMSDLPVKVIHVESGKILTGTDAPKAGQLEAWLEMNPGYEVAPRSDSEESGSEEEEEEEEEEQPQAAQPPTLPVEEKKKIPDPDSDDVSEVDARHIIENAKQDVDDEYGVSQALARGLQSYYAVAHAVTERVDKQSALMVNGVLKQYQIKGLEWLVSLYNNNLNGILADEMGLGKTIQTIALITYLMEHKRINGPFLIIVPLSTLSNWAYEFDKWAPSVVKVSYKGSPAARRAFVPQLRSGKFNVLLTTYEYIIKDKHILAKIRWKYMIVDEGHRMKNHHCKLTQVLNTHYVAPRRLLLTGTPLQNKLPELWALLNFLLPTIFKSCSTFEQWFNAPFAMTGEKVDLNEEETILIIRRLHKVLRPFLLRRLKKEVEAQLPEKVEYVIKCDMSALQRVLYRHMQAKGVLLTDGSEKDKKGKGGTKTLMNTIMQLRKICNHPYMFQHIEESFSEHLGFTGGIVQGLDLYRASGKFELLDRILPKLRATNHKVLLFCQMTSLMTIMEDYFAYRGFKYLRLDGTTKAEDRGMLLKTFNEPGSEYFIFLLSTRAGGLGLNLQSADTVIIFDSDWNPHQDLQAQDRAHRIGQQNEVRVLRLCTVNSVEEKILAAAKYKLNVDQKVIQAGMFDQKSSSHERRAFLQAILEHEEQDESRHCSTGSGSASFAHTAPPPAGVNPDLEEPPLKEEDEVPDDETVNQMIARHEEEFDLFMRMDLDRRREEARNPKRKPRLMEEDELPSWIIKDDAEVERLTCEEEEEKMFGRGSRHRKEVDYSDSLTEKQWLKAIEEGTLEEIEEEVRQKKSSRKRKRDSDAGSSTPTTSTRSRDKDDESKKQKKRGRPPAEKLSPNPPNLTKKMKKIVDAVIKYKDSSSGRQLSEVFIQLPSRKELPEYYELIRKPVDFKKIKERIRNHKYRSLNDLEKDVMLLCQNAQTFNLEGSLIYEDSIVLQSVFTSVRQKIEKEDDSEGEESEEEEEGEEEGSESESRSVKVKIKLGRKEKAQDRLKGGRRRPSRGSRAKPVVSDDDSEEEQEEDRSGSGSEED

| IC50 (A549 cells) [µM] | IC50 (H358 cells) [µM] | IC50 ([1]; Table 3c.1) [µM] | IC50 (FL-SMARCA4; [2]) [µM] | IC50 [1, 3] [µM] | IC50 (FL-SMARCA4; FL-SMARCA4 IC50) [µM] | SMILES |
| --- | --- | --- | --- | --- | --- | --- |
| 2.37 | > 10 |  |  | 0.067 | 0.241 | Cc1sc(C(=O)Nc2cc(F)c(=O)n(CC(F)F)c2)cc1C#N [Compound 81d] |
| 2.37 | > 10 | 0.0811 | 0.233 |  |  | CC#Cc1cc(C(=O)Nc2cc(F)c(=O)n(CC(F)F)c2)sc1Cl [Compound 85c] |
| 5.62 | > 10 |  |  | 0.187 | 2.07 | O=C(Nc1cc(F)c(=O)n(CC(F)F)c1)c1cc(OC(F)(F)F)c(C(F)(F)F)s1 [Compound 89d] |
| > 10 | > 10 |  |  | 1.39 | 2.71 | O=C(Nc1cc(F)c(=O)n(CC(F)F)c1)c1cc(C#Cc2cn3c(n2)COCC3)c(Cl)s1 [Compound 90d] |
| > 10 | > 10 |  |  | 0.334 | 1.06 | O=C(Nc1cc(F)c(=O)n(CC(F)F)c1)c1cc(C#Cc2cnc3n2CCOC3)c(Cl)s1 [Compound 95d] |
| 4.44 | > 10 |  |  | 0.0381 | 0.0973 | O=C(Nc1cc(F)c(=O)n(CC(F)F)c1)c1cc(C#Cc2ccc3cncn3c2)c(Cl)s1 [Compound 96d] |
| 3.29 | > 10 | 0.108 | 0.287 |  |  | CS(=O)(=O)c1cccc(C#Cc2cc(C(=O)Nc3cc(F)c(=O)n(CC(F)F)c3)sc2Cl)c1 [Compound 98c] |
| 1.05 | > 10 |  |  | 0.0194 | 0.0464 | N#Cc1sc(C(=O)Nc2cc(F)c(=O)n(CC(F)F)c2)cc1C#CC1CCOCC1 [Compound 102d] |
| 4.37 | > 10 |  |  | 0.03 | 0.082 | N#Cc1sc(C(=O)Nc2cc(F)c(=O)n(CC(F)F)c2)cc1C#C[C@H]1C[C@H](O)C1 [Compound 104d] |
| 4.29 | > 10 |  |  | 0.0314 | 0.0906 | N#Cc1sc(C(=O)Nc2cc(F)c(=O)n(CC(F)F)c2)cc1C#C[C@H]1C[C@@H](O)C1 [Compound 105d] |
| > 10 | > 10 |  |  | 0.542 | 1.78 | O=C(Nc1cc(F)c(=O)n(CC(F)F)c1)c1cc(C#CC2CCCNC2)c(Cl)s1 (stereo not shown) [Compound 108d] |
| 1.95 | > 10 | 0.0105 | 0.0265 |  |  | NC(=O)c1nc(C#Cc2cc(C(=O)Nc3cc(F)c(=O)n(CC(F)F)c3)sc2Cl)cs1 [Compound 111c] |

Continued, compound first:

| SMILES | IC50 (A549 cells) [µM] | IC50 (H358 cells) [µM] | IC50 ([1]; Table 3c.1) [µM] | IC50 (FL-SMARCA4; [2]) [µM] | IC50 [1, 3] [µM] | IC50 (FL-SMARCA4; FL-SMARCA4 IC50) [µM] |
| --- | --- | --- | --- | --- | --- | --- |
| O=C(Nc1cc(F)c(=O)n(CC(F)F)c1)c1cc(C#Cc2ccccn2)c(Cl)s1 [Compound 81c] | 2.01 | > 10 | 0.0798 | 0.198 |  |  |
| Cc1cc(NC(=O)c2cc(Cl)c(C(F)(F)F)s2)cn(CC(F)F)c1=O [Compound 82d] | 4.73 | > 10 |  |  | 1.36 | 8.09 |
| O=C(Nc1cc(F)c(=O)n(CC(F)F)c1)c1cc(C#Cc2cn[nH]c2)c(Cl)s1 [Compound 83c] | 3.47 | > 10 | 0.0194 | 0.0629 |  |  |
| CC(F)(F)c1sc(C(=O)Nc2cc(F)c(=O)n(CC(F)F)c2)cc1C#N [Compound 83d] | > 10 | > 10 |  |  | 0.465 | 2.39 |
| CC(C)(F)c1sc(C(=O)Nc2cc(F)c(=O)n(CC(F)F)c2)cc1C#N [Compound 84d] | > 10 | > 10 |  |  | 8.58 | > 50 |
| N#Cc1cc(C(=O)Nc2cc(F)c(=O)n(CC3(F)CC3)c2)sc1C(F)(F)F [Compound 85d] | 4.17 | > 10 |  |  | 0.104 | 0.596 |
| CNC(=O)c1cccc(C#Cc2cc(C(=O)Nc3cc(F)c(=O)n(CC(F)F)c3)sc2Cl)c1 [Compound 86c] | 1.73 | > 10 | 0.0172 | 0.0451 |  |  |
| N#Cc1cc(NC(=O)c2cc(Cl)c(C(F)(F)F)s2)cn(CC(F)F)c1=O [Compound 86d] | 3.95 | 8.56 |  |  | 0.101 | 0.512 |
| N#Cc1cc(C(=O)Nc2cc(F)c(=O)n(CC(F)F)c2)sc1C1CC1 [Compound 87d] | > 10 | > 10 |  |  | 0.978 | 4.99 |
| N#Cc1cc(C(=O)Nc2cc(O)c(=O)n(CC(F)F)c2)sc1C(F)(F)F [Compound 88d] | > 10 | > 10 |  |  | 0.576 | 3.97 |
| O=C(Nc1cc(F)c(=O)n(CC(F)F)c1)c1cc(C#Cc2ccc3nncn3c2)c(Cl)s1 [Compound 91d] | > 10 | > 10 |  |  | 0.0229 | 0.0698 |
| Cc1sc(C(=O)Nc2cc(F)c(=O)n(CC(F)F)c2)cc1C#CC1COC1 [Compound 92c] | 2.33 | > 10 | 0.12 | 0.346 |  |  |
| Cc1cc(C#Cc2cc(C(=O)Nc3cc(C#N)c(=O)n(CC(F)F)c3)sc2Cl)sn1 [Compound 92d] | 1.99 | > 10 |  |  | 0.0313 | 0.155 |
| Cn1cc(C#Cc2cc(C(=O)Nc3cc(C#N)c(=O)n(CC(F)F)c3)sc2Cl)cn1 [Compound 93d] | 3.93 | > 10 |  |  | 0.0431 | 0.147 |
| O=C(Nc1cc(F)c(=O)n(CC(F)F)c1)c1cc(/C=C/c2cccnc2)c(Cl)s1 [Compound 95c] | > 10 | > 10 | 0.603 | 5.71 |  |  |
| O=C(Nc1cc(F)c(=O)n(CC(F)F)c1)c1cc(C#Cc2ccn(-c3ccccn3)c(=O)c2)c(Cl)s1 [Compound 97d] | > 10 | > 10 |  |  | 2.69 | 3.38 |
| CNS(=O)(=O)c1cccc(C#Cc2cc(C(=O)Nc3cc(F)c(=O)n(CC(F)F)c3)sc2Cl)c1 [Compound 99c] | 1.7 | > 10 | 0.0406 | 0.0801 |  |  |
| O=C(Nc1cc(F)c(=O)n(CC(F)F)c1)c1cc(C#CC2CCS(=O)(=O)CC2)c(Cl)s1 [Compound 99d] | 6.68 | > 10 |  |  | 0.195 | 0.244 |
| N#Cc1ncc(C#Cc2cc(C(=O)Nc3cc(F)c(=O)n(CC(F)F)c3)sc2Cl)o1 [Compound 100d] | 4.35 | 6.25 |  |  | 0.00606 | 0.00853 |
| O=C(Nc1cc(F)c(=O)n(CC(F)F)c1)c1cc(C#CC2OCCCO2)c(Cl)s1 [Compound 101d] | 3.74 | > 10 |  |  | 0.166 | 0.285 |
| N#Cc1cc(C(=O)Nc2cc(OC(F)(F)F)c(=O)n(CC(F)F)c2)sc1C(F)(F)F [Compound 103d] | > 10 | > 10 |  |  | > 50 | > 50 |
| O=C(Nc1cc(F)c(=O)n(CC(F)F)c1)c1cc(C#CC2CCNC2)c(Cl)s1 (stereo not shown) [Compound 106d] | > 10 | > 10 |  |  | 2.19 | 5.63 |
| O=C(Nc1cc(F)c(=O)n(CC(F)F)c1)c1cc(C#CC2CCCN2)c(Cl)s1 (stereo not shown) [Compound 107d] | > 10 | > 10 |  |  | 0.572 | 1.54 |
| O=C(Nc1cc(F)c(=O)n(CC(F)F)c1)c1cc(C#CC2CNCCO2)c(Cl)s1 (stereo not shown) [Compound 109d] | > 10 | > 10 |  |  | 1.06 | 3.16 |
| O=C(Nc1cc(F)c(=O)n(CC(F)F)c1)c1cc(C#CC2CCN(CC(F)(F)F)C2)c(Cl)s1 (stereo not shown) [Compound 110d] | > 10 | > 10 |  |  | 1.47 | 4.61 |
